From patent US11040036B2, “Pyruvate kinase activators for use in treating blood disorders” (Agios Pharmaceuticals, Inc., priority 2017, dated 2021)

What was measured:
PKR K410E = PKR K410E (Homo sapiens, UniProt P30613, K410E); test: PKR mutant assay (AC50), PKR K410E; assay type: biochemical; settings: PKR K410E mutant enzyme
Method in brief: (§1)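 Human wild-type PKR or R510Q/K410E mutant (40-400 ng/well) in 50 mM Tris pH 7.5, 100 mM KCl, 5 mM MgCl2, 1 mM DTT, 0.03% BSA with PEP 0.1-0.5 mM, 180 μM NADH and LDH coupling. Compound (11-point 3-fold series from 100 μM final) preincubated 60 min at room temperature. Reaction was started with ADP (0.2-1.65 mM) and NADH depletion was followed at 340 nm to give AC50.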

PKR R510Q = PKR R510Q (Homo sapiens, UniProt P30613, R510Q); test: PKR mutant assay (AC50), PKR R510Q; assay type: biochemical; settings: PKR R510Q mutant enzyme; read-out: PK R510Q AC50
Method in brief: as §1

wild type PKR [1] = biological target: T1, wild type PKR (Homo sapiens, UniProt P30613); test: PKR mutant assay (AC50), wild type PKR; assay type: biochemical; settings: wild type PKR enzyme; read-out: PKR WT AC50
Method in brief: as §1

wild type PKR [2] = biological target: T1, wild type PKR; test: Cell based ATP assay in purified red blood cells; parameters: endogenous in cells; host or cells: purified red blood cells from blood of healthy volunteers; settings: RBCs, overnight at 37° C., ATP levels by Cell-Titer-Glo
Method in brief: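 Leukocyte-depleted red cells from healthy volunteers were held in AGAM (PBS, glucose, adenine, mannitol) at 1×10^7 cells/mL. They were treated with 1:4 serial compound dilutions at 0.1% DMSO final and incubated overnight at 37 °C in humidity. ATP was then quantified by CellTiter-Glo luminescence.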

T1 sequence (P30613 whole entry): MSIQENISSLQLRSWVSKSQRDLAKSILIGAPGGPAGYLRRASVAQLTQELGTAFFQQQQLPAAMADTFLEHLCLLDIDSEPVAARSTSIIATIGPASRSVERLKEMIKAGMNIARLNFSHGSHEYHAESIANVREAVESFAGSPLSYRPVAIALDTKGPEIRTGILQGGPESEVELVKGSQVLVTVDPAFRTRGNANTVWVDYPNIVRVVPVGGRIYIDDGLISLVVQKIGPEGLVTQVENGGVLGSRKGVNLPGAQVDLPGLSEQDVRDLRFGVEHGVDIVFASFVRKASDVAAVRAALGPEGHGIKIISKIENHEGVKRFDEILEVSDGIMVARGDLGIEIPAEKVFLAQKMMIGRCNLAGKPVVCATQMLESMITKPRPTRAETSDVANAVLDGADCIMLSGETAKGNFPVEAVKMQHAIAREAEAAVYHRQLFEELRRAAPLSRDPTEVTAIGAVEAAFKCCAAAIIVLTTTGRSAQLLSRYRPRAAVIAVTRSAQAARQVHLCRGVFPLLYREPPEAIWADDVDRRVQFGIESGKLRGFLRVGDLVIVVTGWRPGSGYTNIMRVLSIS
Chain of PKR K410E (P30613 whole entry K410E): as the sequence (P30613 whole entry) above, with K410E counted along it
Chain of PKR R510Q (P30613 whole entry R510Q): as the sequence (P30613 whole entry) above, with R510Q counted along it

| AC50 (PKR K410E) | AC50 (PKR R510Q) | AC50 (wild type PKR [1]) | AC50 (wild type PKR [2]) | SMILES |
| --- | --- | --- | --- | --- |
| < 300 nM | < 300 nM | < 300 nM | ≤ 1000 nM | Cc1scnc1Cn1ncc2c3sc(Cc4cc[nH]n4)nc3n(C)c2c1=O |
| < 300 nM | < 300 nM | < 300 nM | ≤ 1000 nM | Cn1c2nc(Cc3c[nH]nn3)sc2c2cnn(Cc3c[nH]nn3)c(=O)c21 |
| < 300 nM | < 300 nM | < 300 nM | ≤ 1000 nM | Cn1c2nc(Cc3cc[nH]n3)sc2c2cnn(Cc3csc(CO)n3)c(=O)c21 |
| < 300 nM | < 300 nM | < 300 nM | ≤ 1000 nM | Cn1c2nc(Cc3cc[nH]n3)sc2c2cnn(Cc3cccc(N)n3)c(=O)c21 |
| < 300 nM | < 300 nM | < 300 nM | ≤ 1000 nM | Cn1c2nc(Cc3cc[nH]n3)sc2c2cnn(Cc3ccc(F)c(N)n3)c(=O)c21 |
| < 300 nM | < 300 nM | < 300 nM | ≤ 1000 nM | Cn1c2nc(Cc3cc[nH]n3)sc2c2cnn(Cc3cocn3)c(=O)c21 |
| < 300 nM | < 300 nM | < 300 nM | ≤ 1000 nM | Cn1c2nc(Cc3cc[nH]n3)sc2c2cnn(Cc3ccncc3)c(=O)c21 |
| < 300 nM | < 300 nM | < 300 nM | ≤ 1000 nM | Cn1c2nc(Cc3n[nH]cc3F)sc2c2cnn(Cc3n[nH]cc3Cl)c(=O)c21 |
| < 300 nM | < 300 nM | < 300 nM | ≤ 1000 nM | Cn1c2nc(Cc3csc(CO)n3)sc2c2cnn(Cc3nccs3)c(=O)c21 |
| < 300 nM | < 300 nM | < 300 nM | ≤ 1000 nM | Cn1c2nc(Cc3cc[nH]n3)sc2c2cnn(Cc3ccnc(N)n3)c(=O)c21 |
| > 800 nM | > 800 nM | > 800 nM | > 1000 nM | Cn1nncc1Cn1ncc2c3sc(Cc4cc[nH]n4)nc3n(C)c2c1=O |
| < 300 nM | < 300 nM | < 300 nM | ≤ 1000 nM | Cn1c2nc(Cc3ncsc3Cl)sc2c2cnn(Cc3cc[nH]n3)c(=O)c21 |
| < 300 nM | < 300 nM | < 300 nM | ≤ 1000 nM | CNc1ccc(F)c(Cn2ncc3c4sc(Cc5cc[nH]n5)nc4n(C)c3c2=O)n1 |
| < 300 nM | < 300 nM | < 300 nM | ≤ 1000 nM | Cn1c2nc(Cn3cc[nH]c3=O)sc2c2cnn(Cc3cc[nH]n3)c(=O)c21 |
| < 300 nM | < 300 nM | < 300 nM | ≤ 1000 nM | Cn1c2nc(Cc3cc[nH]n3)sc2c2cnn(Cc3cscn3)c(=O)c21 |
| < 300 nM | < 300 nM | < 300 nM | ≤ 1000 nM | Cn1c2nc(Cc3cc[nH]n3)sc2c2cnn(Cc3ccsn3)c(=O)c21 |
| < 300 nM | < 300 nM | < 300 nM | ≤ 1000 nM | Cn1c2nc(Cc3cc[nH]n3)sc2c2cnn(Cc3cc(Cl)[nH]n3)c(=O)c21 |
| < 300 nM | < 300 nM | < 300 nM | ≤ 1000 nM | Cn1c2nc(Cc3cscn3)sc2c2cnn(Cc3csc(N)n3)c(=O)c21 |
| < 300 nM | < 300 nM | < 300 nM | ≤ 1000 nM | COc1ncccc1Cn1ncc2c3sc(Cc4cc[nH]n4)nc3n(C)c2c1=O |
| < 300 nM | < 300 nM | < 300 nM | ≤ 1000 nM | Cn1ccc(Cn2ncc3c4sc(Cc5n[nH]cc5F)nc4n(C)c3c2=O)n1 |
| < 300 nM | < 300 nM | < 300 nM | ≤ 1000 nM | Cn1c2nc(Cc3ccccn3)sc2c2cnn(Cc3nccs3)c(=O)c21 |
| < 300 nM | < 300 nM | < 300 nM | ≤ 1000 nM | Cn1c2nc(Cn3cncn3)sc2c2cnn(Cc3cc[nH]n3)c(=O)c21 |

| AC50 (PKR K410E) | AC50 (PKR R510Q) | AC50 (wild type PKR [1]) | AC50 (wild type PKR [2]) | SMILES |
| --- | --- | --- | --- | --- |
| < 300 nM | < 300 nM | < 300 nM | ≤ 1000 nM | COc1cc(Cn2ncc3c4sc(Cc5cc[nH]n5)nc4n(C)c3c2=O)ccn1 |
| < 300 nM | < 300 nM | < 300 nM | ≤ 1000 nM | Cn1cc(Cl)c(Cn2ncc3c4sc(Cc5cc[nH]n5)nc4n(C)c3c2=O)n1 |
| < 300 nM | < 300 nM | < 300 nM | ≤ 1000 nM | Cn1c2nc(Cc3cc[nH]n3)sc2c2cnn(Cc3cnsc3)c(=O)c21 |
| < 300 nM | < 300 nM | < 300 nM | ≤ 1000 nM | Cn1c2nc(Cc3nc(N)sc3F)sc2c2cnn(Cc3cc[nH]n3)c(=O)c21 |
| < 300 nM | < 300 nM | < 300 nM | ≤ 1000 nM | Cn1c2nc(Cc3cc[nH]n3)sc2c2cnn(Cc3n[nH]cc3O)c(=O)c21 |
| < 300 nM | < 300 nM | < 300 nM | ≤ 1000 nM | Cn1c2nc(Cc3csc(CO)n3)sc2c2cnn(Cc3cc[nH]n3)c(=O)c21 |
| < 300 nM | < 300 nM | < 300 nM | ≤ 1000 nM | COc1c[nH]nc1Cn1ncc2c3sc(Cc4n[nH]cc4F)nc3n(C)c2c1=O |
| < 300 nM | < 300 nM | < 300 nM | ≤ 1000 nM | Cn1c2nc(Cc3ccccn3)sc2c2cnn(Cc3csc(N)n3)c(=O)c21 |
| < 300 nM | < 300 nM | < 300 nM | ≤ 1000 nM | Cn1c2nc(Cc3cc[nH]n3)sc2c2cnn(Cc3ncns3)c(=O)c21 |
| < 300 nM | < 300 nM | < 300 nM | ≤ 1000 nM | Cn1c2nc(Cc3cc[nH]n3)sc2c2cnn(Cc3ccccn3)c(=O)c21 |
| < 300 nM | < 300 nM | < 300 nM | ≤ 1000 nM | Cn1cc(F)c(Cn2ncc3c4sc(Cc5cc[nH]n5)nc4n(C)c3c2=O)n1 |
| < 300 nM | < 300 nM | < 300 nM | ≤ 1000 nM | Cn1c2nc(Cc3cscn3)sc2c2cnn(Cc3cscn3)c(=O)c21 |
| > 800 nM | > 800 nM | > 800 nM | ≤ 1000 nM | Cn1ccc(Cn2ncc3c4sc(C(=O)c5cc[nH]n5)nc4n(C)c3c2=O)n1 |
| < 300 nM | < 300 nM | < 300 nM | ≤ 1000 nM | Cc1scnc1Cc1nc2c(s1)c1cnn(Cc3ccn[nH]3)c(=O)c1n2C |
| < 300 nM | < 300 nM | < 300 nM | ≤ 1000 nM | Cc1ccc(Cn2ncc3c4sc(Cc5cc[nH]n5)nc4n(C)c3c2=O)nc1Cl |
| < 300 nM | < 300 nM | < 300 nM | ≤ 1000 nM | Cn1ccc(Cn2ncc3c4sc(Cc5cccc(N)n5)nc4n(C)c3c2=O)n1 |
| < 300 nM | < 300 nM | 301 to 800 nM | ≤ 1000 nM | Cn1c2nc(C(=O)c3cc[nH]n3)sc2c2cnn(Cc3cccc(N)n3)c(=O)c21 |
| < 300 nM | < 300 nM | < 300 nM | ≤ 1000 nM | Cn1c2nc(Cc3n[nH]cc3F)sc2c2cnn(Cc3ncsc3Cl)c(=O)c21 |
| < 300 nM | < 300 nM | < 300 nM | ≤ 1000 nM | Cn1c2nc(Cc3ccccn3)sc2c2cnn(Cc3cc[nH]n3)c(=O)c21 |
| < 300 nM | < 300 nM | < 300 nM | ≤ 1000 nM | Cn1c2nc(Cc3c[nH]nn3)sc2c2cnn(Cc3cc[nH]n3)c(=O)c21 |
| < 300 nM | < 300 nM | < 300 nM | ≤ 1000 nM | COc1scnc1Cc1nc2c(s1)c1cnn(Cc3cc[nH]n3)c(=O)c1n2C |
